Measurements reported in ChEMBL document CHEMBL5104111, “Boron-Containing heterocycles as promising pharmacological agents” (Bioorg Med Chem, 2022).
pIC50, pKi: −log10 of the molar value. Values after ≈ are worked out from the molar mass of the structure shown.

How the values were obtained:
[1] = tested on: Prototheca zopfii; assay: Antimicrobial activity against Prototheca zopfii assessed as microbial growth inhibition by CLSI protocol based assay; format: functional
[2] = tested on: LN-229; assay: Anticancer activity against human LN-229 cells assessed as cell growth inhibition by trypan blue exclusion assay; format: functional, cell-based
[3] = tested on: Escherichia coli; assay: Antibacterial activity against Escherichia coli assessed as bacterial growth inhibition; format: functional
[4] = Cmax in rat at 25 mg/kg, po; format: ADME, organism-based; design: dose 25 mg/kg, route po; conditions: in vivo
[5] = AUC (0 to 24 hrs) in rat at 25 mg/kg, po; format: ADME, organism-based; design: time < 24 hr, dose 25 mg/kg, route po; conditions: in vivo
[6] = tested on: Streptococcus mutans; assay: Antibiofilm activity against Streptococcus mutans ATCC 27351 assessed as bacterial viability at 0.9 uM by SYTO/PI staining based inverted microscopy relative to control; format: functional
[7] = tested on: Mycobacterium tuberculosis; assay: Antibacterial activity against Mycobacterium tuberculosis H37Rv ATCC 27294 assessed as bacterial growth inhibition by radiometry method; format: functional
[8] = tested on: Aspergillus niger; assay: Antifungal activity against Aspergillus niger assessed as fungal growth inhibition incubated for 48 hrs by agar diffusion method; format: functional; conditions: Aspergillus niger
[9] = tested on: Mycobacterium tuberculosis; assay: Antibacterial activity against Mycobacterium tuberculosis H37Rv ATCC 25618 assessed as bacterial growth inhibition incubated for 5 days by fluorescence based assay; format: functional, organism-based; conditions: H37Rv ATCC 25618, 120 h
[10] = Protein binding in mouse plasma; format: ADME, cell-free; conditions: read-out: PB (converted)
[11] = tested on: HepG2; assay: Cytotoxicity against human HepG2 cells assessed as cell growth inhibition incubated for 72 hrs by Cell Titer Glo assay; format: functional, cell-based; conditions: HepG2, 72 h
[12] = Protein binding in human serum; format: ADME, cell-free; conditions: read-out: PB (converted)
[13] = Cytotoxicity against HEK293T cells assessed as reduction in cell viability incubated for 48 hrs by MTT assay; format: toxicity, cell-based, HEK-293T; conditions: human
[14] = tested on: Escherichia coli; assay: Antibacterial activity against Escherichia coli ATCC 25922 assessed as bacterial growth inhibition incubated for 72 hrs by broth microdilution method; format: functional
[15] = tested on: Aspergillus niger; assay: Antifungal activity against Aspergillus niger assessed as fungal growth inhibition at 50 ug incubated for 96 hrs by disk diffusion method; format: functional; conditions: read-out: IZ
[16] = tested on: Verticillium dahliae; assay: Antifungal activity against Verticillium dahliae assessed as fungal growth inhibition at 50 ug incubated for 96 hrs by disk diffusion method; format: functional; conditions: read-out: IZ
[17] = tested on: Candida albicans; assay: Antifungal activity against Candida albicans assessed as fungal growth inhibition at 25 ug incubated for 48 hrs by disk diffusion method; format: functional; conditions: read-out: IZ
[18] = tested on: Mycolicibacterium smegmatis; assay: Antibacterial activity against Mycobacterium smegmatis ATCC 700084 assessed as bacterial growth inhibition incubated for 72 hrs by broth microdilution method; format: functional
[19] = tested on: Aspergillus niger; assay: Antifungal activity against Aspergillus niger assessed as fungal growth inhibition at 25 ug incubated for 48 hrs by disk diffusion method; format: functional; conditions: read-out: IZ
[20] = tested on: Aspergillus niger; assay: Antifungal activity against Aspergillus niger ATCC 20408 assessed as fungal growth inhibition by plate colony counting method; format: functional
[21] = tested on: MIA PaCa-2; assay: Anticancer activity against human MIA PaCa-2 cells assessed as cell growth inhibition incubated for 72 hrs by MTT assay; format: functional, cell-based; conditions: MIA PaCa-2, 72 h
[22] = tested on: MDA-MB-231; assay: Anticancer activity against human MDA-MB-231 cells assessed as cell growth inhibition incubated for 72 hrs by MTT assay; format: functional, cell-based; conditions: MDA-MB-231, 72 h
[23] = tested on: Mycolicibacterium smegmatis; assay: Antibacterial activity against Mycobacterium smegmatis assessed as bacterial growth inhibition; format: functional
[24] = Lipophilicity, log P of the compound; format: physicochemical; conditions: octanol/water
[25] = tested on: Klebsiella pneumoniae; assay: Antibacterial activity against Klebsiella pneumoniae Delta-217 assessed as bacterial growth inhibition incubated for 16 hrs by broth dilution method; format: functional
[26] = tested on: Proteus mirabilis; assay: Antibacterial activity against Proteus mirabilis Delta-89 assessed as bacterial growth inhibition incubated for 16 hrs by broth dilution method; format: functional
[27] = tested on: Vanrija humicola; assay: Antifungal activity against Cryptococcus humicola ATCC 9949 assessed as fungal growth inhibition by broth microdilution method; format: functional
[28] = tested on: Candida albicans; assay: Antifungal activity against Candida albicans ATCC 14053 assessed as fungal growth inhibition by broth microdilution method; format: functional
[29] = tested on: Aspergillus niger; assay: Antifungal activity against Aspergillus niger ATCC 16404 assessed as fungal growth inhibition by broth microdilution method; format: functional
[30] = tested on: Fusarium oxysporum; assay: Antifungal activity against Fusarium oxysporum VKM F-140 assessed as fungal growth inhibition by broth microdilution method; format: functional
[31] = Inhibition of Escherichia coli LeuRS using Escherichia coli tRNA as substrate incubated for 20 mins in presence of 14C-leucine/ATP
[32] = tested on: Escherichia coli; assay: Antibacterial activity against Escherichia coli ATCC 25922 assessed as bacterial growth inhibition; format: functional
[33] = tested on: Mycobacterium tuberculosis; assay: Antibacterial activity against Mycobacterium tuberculosis assessed as bacterial growth inhibition; format: functional
[34] = tested on: Pseudomonas aeruginosa; assay: Antibacterial activity against Pseudomonas aeruginosa assessed as bacterial growth inhibition by broth microdilution method; format: functional
[35] = AUC (0 to 24 hrs) in C57BL/6 mouse at 30 mg/kg, po qd via gavage measured for 0.25 to 24 hrs post dose by LC-MS/MS analysis; format: ADME, organism-based; design: dose 30 mg/kg, time 0.25-24 hrs, route po; conditions: in vivo
[36] = tested on: Mycobacterium tuberculosis; assay: Antibacterial activity against Mycobacterium tuberculosis H37Rv infected in C57BL/6J mouse model of acute TB infection administered once daily for 8 days and measured after 24 hrs; format: functional; conditions: 216 h, time 9 day
[37] = Dose normalized AUC (0 to 24 hrs) in C57BL/6 mouse at 30 mg/kg, po qd via gavage measured for 0.25 to 24 hrs post dose by LC-MS/MS analysis; format: ADME, organism-based; conditions: in vivo, time 0.25-24 hrs
[38] = Dose normalized AUC (0 to infinity) in C57BL/6 mouse at 5.5 mg/kg, iv qd measured for 0.083 to 24 hrs post dose by LC-MS/MS analysis; format: ADME, organism-based; conditions: in vivo, time 0.083-24 hrs
[39] = Half life in C57BL/6 mouse at 30 mg/kg, po qd via gavage measured for 0.25 to 24 hrs post dose by LC-MS/MS analysis; format: ADME, organism-based; conditions: in vivo, time 0.25-24 hrs
[40] = Binding affinity to Cryptococcus neoformans beta-carbonic anhydrase assessed as inhibition constant preincubated for 15 mins by bromothymol blue staining based assay
[41] = Binding affinity to Candida glabrata beta-carbonic anhydrase assessed as inhibition constant preincubated for 15 mins by bromothymol blue staining based assay; design: species or system Nakaseomyces glabratus
[42] = target: cAMP and cAMP-inhibited cGMP 3',5'-cyclic phosphodiesterase 10A (Homo sapiens, UniProt Q9Y233); assay: Inhibition of PDE10A (unknown origin)
[43] = tested on: THP-1; assay: Antiinflammatory activity against human THP-1 cells assessed as inhibition of LPS-stimulated IL-1beta release measured after 1 hr by ELISA; format: functional, cell-based; conditions: THP-1, 1 h
[44] = tested on: Staphylococcus aureus; assay: Antibacterial activity against healthcare-associated Methicillin-resistant Staphylococcus aureus assessed as bacterial growth inhibition; format: functional

Sequence of cAMP and cAMP-inhibited cGMP 3',5'-cyclic phosphodiesterase 10A (Q9Y233 whole entry): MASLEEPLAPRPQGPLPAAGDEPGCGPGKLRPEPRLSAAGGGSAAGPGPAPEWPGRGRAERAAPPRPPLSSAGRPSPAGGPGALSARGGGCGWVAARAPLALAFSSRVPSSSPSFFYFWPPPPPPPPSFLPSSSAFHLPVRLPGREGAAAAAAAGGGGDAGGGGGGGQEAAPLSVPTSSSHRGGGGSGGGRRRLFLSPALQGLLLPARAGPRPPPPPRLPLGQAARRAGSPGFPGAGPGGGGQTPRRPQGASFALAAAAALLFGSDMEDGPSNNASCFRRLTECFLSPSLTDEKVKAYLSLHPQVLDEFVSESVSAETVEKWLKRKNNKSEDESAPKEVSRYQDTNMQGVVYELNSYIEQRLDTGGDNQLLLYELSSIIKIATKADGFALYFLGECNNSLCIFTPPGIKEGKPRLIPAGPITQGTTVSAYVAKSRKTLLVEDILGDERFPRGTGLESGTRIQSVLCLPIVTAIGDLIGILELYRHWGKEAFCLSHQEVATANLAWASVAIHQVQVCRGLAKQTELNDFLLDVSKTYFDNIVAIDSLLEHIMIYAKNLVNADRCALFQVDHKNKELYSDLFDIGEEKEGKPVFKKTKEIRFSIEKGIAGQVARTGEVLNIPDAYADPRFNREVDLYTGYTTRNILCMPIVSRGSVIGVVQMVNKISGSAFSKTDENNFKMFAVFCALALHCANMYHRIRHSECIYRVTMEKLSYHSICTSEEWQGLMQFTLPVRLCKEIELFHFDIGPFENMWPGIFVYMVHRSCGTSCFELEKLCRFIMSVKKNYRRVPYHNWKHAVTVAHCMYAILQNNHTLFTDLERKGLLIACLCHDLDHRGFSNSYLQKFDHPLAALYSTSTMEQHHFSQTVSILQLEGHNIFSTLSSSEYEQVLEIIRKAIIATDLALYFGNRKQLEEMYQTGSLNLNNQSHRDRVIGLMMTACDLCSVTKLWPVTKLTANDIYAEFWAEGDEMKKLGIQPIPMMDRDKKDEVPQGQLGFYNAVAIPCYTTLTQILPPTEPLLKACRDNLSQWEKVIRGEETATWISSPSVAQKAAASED

In the case of `COc1ccc([N+]2=C(c3ccccc3)C=C(C(Cl)(Cl)Cl)O[B-]2(F)F)cc1`, the MIC [1] was 0.3 µg/mL (≈ 0.717 µM).

`CC(C)[C@@H]1[NH2+][B-](c2ccc(F)cc2F)(c2ccc(F)cc2F)OC1=O` gave a pIC50 [2] of 4.31.

`CC1=NN2B(OB3c4ccccc4C(C)=NN3C2=O)c2ccccc21` showed an MIC [3] of 32 µg/mL (≈ 97.6 µM).

Work on `CC1(C)OB(O)c2cc(NC(=O)c3ccc(F)cc3C(F)(F)F)ccc21` [ACOZIBOROLE] yielded a Cmax [4] of over 10000 ng/mL and an AUC(0-t) at 24 h [5] of over 100000 ng·h/mL.

In the case of `CC1(C)COB(c2ccccc2)N1`, the Activity [6] was 60%.

In the case of `O=C1Nc2ccccc2B(O)N1c1ccccc1`, the MIC [7] was 8 µg/mL (≈ 33.6 µM).

`OB1OCc2cc(F)ccc21` [TAVABOROLE] gave an MIC [8] of 2 µg/mL (≈ 13.2 µM).

Work on `CCS(=O)(=O)N1N=Cc2ccc(Oc3ccc(C(F)(F)F)cc3/C=N/O)cc2B1O` yielded a pIC50 [9] of 7.05, a fraction unbound [10] of 0.015 and a pIC50 [11] of under 4.00. For the same molecule, the fraction unbound [12] was 0.12.

`OB1c2sccc2C=NN1Cc1ccccc1` showed a CC50 at 48 h [13] of over 100000 nM.

Molecule `NC(=S)N1N=Cc2ccccc2B1O` has an MIC [14] of 16 µg/mL (≈ 78 µM), a zone of inhibition at 50 µg/disc [15] of 3.1 mm and a zone of inhibition at 50 µg/disc [16] of 3.7 mm. The zone of inhibition at 25 µg/disc [17] was 6 mm, the MIC [18] was 4 µg/mL (≈ 19.5 µM) and the zone of inhibition at 25 µg/disc [19] was 7 mm.

With `Clc1cccc(B2NC(c3ccccc3)=NO2)c1` the MIC [20] was 0.09 µM (≈ 0.0231 µg/mL).

`OB1OCc2ccc(NCc3cc4ccccc4cc3Cl)cc21` showed a pIC50 [21] of 5.57 and a pIC50 [22] of 4.92.

Work on `O=C(c1ccncc1)N1N=Cc2ccccc2B1OB1c2ccccc2C=NN1C(=O)c1ccncc1` yielded an MIC [3] of 4 µg/mL (≈ 8.26 µM) and an MIC [23] of 32 µg/mL (≈ 66.1 µM).

Molecule `CN1C(=O)C2(Cc3ccccc3B(O)O2)c2ccccc21` (configuration not stated) has a logP [24] of 3.52.

In the case of `Cc1ccc2c(c1)C=NN(S(=O)(=O)c1ccc(N)cc1Cl)B2O`, the MIC [25] was 0.39 µg/mL (≈ 1.12 µM) and the MIC [26] was 0.78 µg/mL (≈ 2.23 µM).

`C[C@@H]1[C@H](O)[C@@H](C)/C=C/C=C/C=C/C=C/C=C/C=C/C=C/[C@H](O[C@@H]2O[C@H](C)[C@@H](O)[C@H](NC(=O)CCc3ccc4c(c3)OB(O)C4)[C@@H]2O)C[C@@H]2O[C@](O)(C[C@@H](O)C[C@@H](O)[C@H](O)CC[C@@H](O)C[C@@H](O)CC(=O)O[C@H]1C)C[C@H](O)[C@H]2C(=O)O` showed an MIC [27] of 0.5 µg/mL (≈ 0.45 µM), an MIC [28] of 0.5 µg/mL (≈ 0.45 µM) and an MIC [29] of 0.5 µg/mL (≈ 0.45 µM). The MIC [30] was 0.5 µg/mL (≈ 0.45 µM).

With `Cl.NC[C@H]1OB(O)c2c(OCCCO)cccc21` the pIC50 [31] was 6.51 and the MIC [32] was 1 µg/mL.

`N#Cc1ccccc1-c1cccc2c1B(O)OC2` gave an IC90 [33] of 30000 nM.

Work on `Clc1ccc(-c2noc3c2COB(c2cccc(Br)c2)OC3)cc1` yielded an MIC [34] of 25 µg/mL (≈ 61.8 µM).

`NC[C@H]1OB(O)c2c(OCCO)ccc(Cl)c21` [GANFEBOROLE] showed an AUC [35] of 88200 ng·h/mL, an ED99 [36] of 0.4 mg/kg and an AUC/dose [37] of 2.94 µg·h/mL. It also gave an AUC/dose [38] of 2.03 µg·h/mL and a half-life [39] of 3.6 h.

`O=C(Nc1ccc(F)cc1)Nc1ccc2c(c1)B(O)OC2` gave a pKi [40] of 7.11 and a pKi [41] of 7.12.

`CN(C(=O)c1nc(-c2cccnc2)cs1)c1ccc(OCB2C=Cc3ccccc3N2)cc1` gave a pIC50 [42] of 6.48.

`O=[N+]([O-])c1cccc(B2NC(c3ccccc3)=NO2)c1` showed an MIC [20] of 0.09 µM (≈ 0.024 µg/mL).

With `CC(=O)C1=C(C(Cl)(Cl)Cl)N[B-](c2ccccc2)(c2ccccc2)[O+]=C1C` the pIC50 [43] was 6.24.

Work on `OCc1ccc2c(c1)C=CB(c1ccc(O)c(C34CC5CC(CC(C5)C3)C4)c1)N2` yielded a logP [24] of 0.12 and an MIC [44] of 64 µM (≈ 24.7 µg/mL).
